Some test systems named below: RPMI-8226 leukemia; OVCAR-5 ovarian; KM20L2 colon; NCI-H226 lung; K-562 leukemia; M14 melanoma; SNB-78 CNS; HOP-62 NSCLC; SF-268 CNS; HS 578T breast.
Assay in all cases: NCI tumour cell line growth inhibition, 48 h

SMILES strings stand for the structures. Several values for one entry are separate records, joined by “and”; a condition that tells them apart may be missing. Identical values can stand only once.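 Where inhibition never reached the appropriate level, the endpoint shown equals the highest concentration tested. Otherwise, values were interpolated linearly from a five-concentration, 48-hour dose response in 96-well plates. Here, GI50 denotes the concentration required for 50% inhibition of growth. TGI: total growth inhibition.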 A value given as a limit tells only on which side of the number the result lay.

As for `C[C@@H]1C[C@@H](O)[C@]2(O)O[C@@H]3C[C@@]4(C=O)[C@@H](CC[C@@H]5[C@@H]4CC[C@]4(C)[C@@H](C6=CC(=O)OC6)CC[C@]54O)C[C@H]3O[C@@H]2O1`, the TGI in the experiment with RPMI-8226 leukemia was 0.0752 µM; with OVCAR-5 ovarian, 0.102 µM and 0.299 µM and 0.194 µM; in the experiment on KM20L2 colon, 0.0631 µM and 0.107 µM; in the experiment with NCI-H226 lung, 0.0857 µM and 0.529 µM and 0.116 µM; in the experiment with K-562 leukemia, 0.601 µM and 1.59 µM and 0.523 µM; in the experiment on M14 melanoma, 0.074 µM and 0.232 µM and 0.2 µM. The TGI in the experiment with SNB-78 CNS is 0.211 µM; in the experiment with HOP-62 NSCLC, 0.0576 µM and 0.067 µM and 0.0709 µM; in the experiment on SF-268 CNS it was 0.0151 µM and 0.0247 µM and 0.0474 µM. The GI50 in the experiment on OVCAR-5 ovarian was 0.119 µM and 0.0652 µM; in the experiment with KM20L2 colon, 0.0218 µM; with NCI-H226 lung it was 0.188 µM and 0.0333 µM; in the experiment with K-562 leukemia, 0.0553 µM and 0.0124 µM; in the experiment on M14 melanoma, 0.0891 µM and 0.0324 µM; in the experiment with HOP-62 NSCLC, 0.0143 µM and 0.005 µM. Besides, the GI50 in the experiment on SF-268 CNS is 0.00621 µM and 0.005 µM.

On to `COc1cc(CCc2ccc(OCCN(C)C)cc2)cc(OC)c1OC`, for which the TGI in the experiment with RPMI-8226 leukemia is above 100 µM; in the experiment on OVCAR-5 ovarian, 88.4 µM; in the experiment on KM20L2 colon it was above 100 µM; with NCI-H226 lung, above 100 µM; with K-562 leukemia, above 100 µM; with M14 melanoma it was above 100 µM. For the same molecule, the TGI with SNB-78 CNS, in the experiment with HOP-62 NSCLC and in the experiment on SF-268 CNS was above 100 µM throughout.

As for `Cc1cnc2c(C)ccc([N+](=O)[O-])c2c1NCCCN(C)C`, the TGI in the experiment with RPMI-8226 leukemia, in the experiment with OVCAR-5 ovarian, in the experiment on KM20L2 colon, with NCI-H226 lung, in the experiment with K-562 leukemia and with M14 melanoma was above 100 µM in each case. Also, the TGI in the experiment on SNB-78 CNS, in the experiment on HOP-62 NSCLC and in the experiment on SF-268 CNS was above 100 µM in each case.

Consider `O=C(c1ccccc1)C(C(=O)c1ccccc1)C1(O)C(=O)c2ccccc2C1=O`, for which the TGI was above 100 µM in the experiment with RPMI-8226 leukemia; above 100 µM in the experiment on OVCAR-5 ovarian; above 100 µM in the experiment with KM20L2 colon; above 100 µM with NCI-H226 lung; 60.6 µM in the experiment on K-562 leukemia; above 100 µM in the experiment on M14 melanoma. Besides, the TGI in the experiment with SNB-78 CNS, in the experiment on HOP-62 NSCLC and in the experiment with SF-268 CNS was above 100 µM each time.

For the molecule `Cc1nc2c(nc1C)C(=O)c1cc(O)ccc1C2=O`, the TGI is above 79.7 µM in the experiment on RPMI-8226 leukemia; above 100 µM in the experiment on OVCAR-5 ovarian; above 100 µM with KM20L2 colon; above 100 µM in the experiment on NCI-H226 lung; above 100 µM in the experiment on K-562 leukemia; above 100 µM in the experiment with M14 melanoma. Further, the TGI with SNB-78 CNS, with HOP-62 NSCLC and in the experiment with SF-268 CNS was above 100 µM each time.

Take `CC1OC(OCC2OC(Oc3c(-c4ccc(O)cc4)oc4cc(O)cc(O)c4c3=O)C(OC3OCC(O)(CO)C3O)C(O)C2O)C(O)C(O)C1O` (configuration not stated): the TGI was above 100 µM in the experiment on RPMI-8226 leukemia; above 100 µM with OVCAR-5 ovarian; above 100 µM with KM20L2 colon; above 100 µM in the experiment on NCI-H226 lung; 74.9 µM in the experiment on K-562 leukemia; above 100 µM in the experiment on M14 melanoma. Besides, the TGI with SNB-78 CNS, with HOP-62 NSCLC and in the experiment with SF-268 CNS was above 100 µM in each case.

As for `CC[C@H](C)N(CCN)C(=O)c1cc2ccccc2c(-c2ccccc2Cl)n1`, the TGI was 32.4 µM with RPMI-8226 leukemia; 27.9 µM in the experiment on OVCAR-5 ovarian; 26.6 µM in the experiment with KM20L2 colon; 29.7 µM with NCI-H226 lung; 12.6 µM with K-562 leukemia; 44.8 µM in the experiment with M14 melanoma. Moreover, the TGI came to 31.6 µM in the experiment on SNB-78 CNS, 33.3 µM with HOP-62 NSCLC and 7.81 µM with SF-268 CNS.

Turning to `N#Cc1cn(C2OC(CO)C(O)C2O)c2ncnc(N)c12` (configuration not stated), the GI50 was 0.0303 µM and 0.045 µM and < 0.01 µM with RPMI-8226 leukemia; 0.238 µM in the experiment with OVCAR-5 ovarian; 0.0045 µM in the experiment with KM20L2 colon; 0.0175 µM with K-562 leukemia; 0.0736 µM in the experiment on SNB-78 CNS; 0.0533 µM in the experiment with HOP-62 NSCLC. In addition, the GI50 in the experiment with SF-268 CNS is below 0.01 µM. Moreover, the TGI was 3.42 µM and 12 µM with KM20L2 colon; 1.33 µM in the experiment with HS 578T breast; 21.9 µM with M14 melanoma; above 450 µM with SNB-78 CNS.

For `CCOC(=O)C(=O)Nc1nc2c(s1)C(=O)c1ccccc1C2=O`, the TGI was found to be 48.2 µM in the experiment on RPMI-8226 leukemia; 42.5 µM with OVCAR-5 ovarian; 40.7 µM in the experiment with KM20L2 colon; 34.4 µM in the experiment on NCI-H226 lung; 33.3 µM in the experiment with K-562 leukemia; 32.7 µM in the experiment on M14 melanoma. Moreover, the TGI in the experiment with SNB-78 CNS came out at 24.8 µM; in the experiment with HOP-62 NSCLC, 33.5 µM; in the experiment with SF-268 CNS, 27.3 µM.

In the case of `Cc1ccc(OCC(=O)N2N=C(c3ccccc3)CC2(O)c2ccccc2)cc1` (configuration not stated), the TGI was above 100 µM in the experiment with RPMI-8226 leukemia; 32.7 µM with OVCAR-5 ovarian; 41.3 µM with KM20L2 colon; 52.5 µM in the experiment on NCI-H226 lung; above 100 µM with K-562 leukemia; 90 µM with M14 melanoma. The TGI in the experiment on SNB-78 CNS was 51.5 µM; with HOP-62 NSCLC it was 46 µM; in the experiment on SF-268 CNS, above 100 µM.

Regarding `Cc1cc(C)nc(NS(=O)(=O)c2ccc(Nc3c4ccccc4nc4c(C(=O)Nc5ccc(S(=O)(=O)N=C(N)N)cc5)ccc(Cl)c34)cc2)n1`, the TGI with RPMI-8226 leukemia was 80.1 µM; in the experiment with OVCAR-5 ovarian, above 100 µM; with KM20L2 colon, above 100 µM; with NCI-H226 lung, 58.1 µM; with K-562 leukemia, above 100 µM; in the experiment on M14 melanoma it was above 100 µM. The TGI is above 100 µM in the experiment with SNB-78 CNS, 54.8 µM in the experiment with HOP-62 NSCLC and 97.2 µM in the experiment with SF-268 CNS.

As to `O=C(O)CSc1n[nH]c(-c2ccc(O)cc2)n1`, the TGI with RPMI-8226 leukemia, with OVCAR-5 ovarian, in the experiment on KM20L2 colon, with NCI-H226 lung, in the experiment with K-562 leukemia and with M14 melanoma was above 100 µM each time. Besides, the TGI in the experiment with SNB-78 CNS, in the experiment on HOP-62 NSCLC and with SF-268 CNS was above 100 µM throughout.
